Peptide text beside a SMILES is read from it. * marks the point of attachment. C18 diacid = O=C(O)CCCCCCCCCCCCCCCCC(=O)*
Assays:
[1] = Assay (X) pK, T½ in rat; type: in vivo, Sprague Dawley rats
Method: Assay (X)—pK—Determination of T½ in Rat
Pharmacokinetic (PK) studies rats were conducted in order to determine the T½ of mimylin peptide after i.v. and s.c. administration.
T½ values of the mimylin derivates of the invention is determined by pharmacokinetic studies in Sprague Dawley male rats, from Taconic Europe and the principles of laboratory animal care are followed.
An acclimatisation period of approximately 7 days was allowed before the animals entered the study. At start of the acclimatisation period the rats were in the weight range of 250-400 g.
The studies were conducted in an animal room which was illuminated to give a cycle of approximately 12 hours light and 12 hours darkness. The animals were group housed and had food and water ad lib. The animals were weighed on the days of dosing.
In the present studies the test substances were administered subcutaneously or intravenously in approximately 20 nmol/kg dose. The animals received a single subcutaneous injection to the neck for subtaneous administration or directly into the tail vein for intravenous administration. Each test substance was given to typically three but in some cases two or four animals.
A full plasma concentration-time profile, employing 8-10 sampling points, was obtained from each animal. In example blood samples were collected according to the following schedule: After subcutaneous or intravenous administration:
At each sampling time, 0.08 to 0.10 ml of blood was drawn from each animal. The blood samples were taken in the sublingual vein via venous puncture and the use of a capillary tube.
The blood samples were stabilised with EDTA. Blood samples were kept on ice for max 20 min. before centrifugation. Plasma was separated using centrifugation (i.e. at 4° C., 10 min., 1500G) and was immediately transferred to Micronic tubes or PCR plates. Approximately 40 μl plasma was transferred and was stored at −20° C. until assayed. The plasma samples were assayed for the content of mimylin compound by LCMS
The plasma concentration-time profiles were analysed by a non-compartmental pharmacokinetic analysis (NCA) using Phoenix WinNonlin 6.3 (Pharsight Inc., Mountain View, Calif., USA). NCA was performed using the individual plasma concentration-time profiles from each animal. T½ is the terminal half-life=In2/λz and was determined from λz, the first order rate constant associated with the terminal (log-linear) portion of the curve, estimated by linear regression of time vs. log concentration.

[2] = Assay (IX) pK, T½ in mini-pig; type: in vivo, Göttingen mini-pigs; details: i.v.
Summary of the method: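 Female Göttingen mini-pigs (5–12 months, 15–35 kg, fed freely) received a single i.v. dose of approximately 5 nmol/kg via central venous catheter, typically n=3. Plasma was sampled from pre-dose to 240 h (sometimes 288 h) and quantified by LC-MS. T½ was derived by non-compartmental analysis from the terminal log-linear slope (ln2/λz).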

Structure (SMILES): CC(C)C[C@H](NC(=O)[C@H](C)NC(=O)[C@H](C)NC(=O)[C@@H](NC(=O)[C@H](CO)NC(=O)[C@H](CC(C)C)NC(=O)[C@H](CCC(=O)O)NC(=O)[C@H](CO)NC(=O)[C@H](C)NC(=O)[C@H](CCC(=O)O)NC(=O)CCCCCCCCCCCCCCCCC(=O)O)[C@@H](C)O)C(=O)NCC(=O)N[C@@H](CCCNC(=N)N)C(=O)N[C@@H](CC(C)C)C(=O)N[C@@H](CO)C(=O)N[C@@H](C)C(=O)N[C@@H](CCC(=O)O)C(=O)N[C@@H](CC(C)C)C(=O)N[C@@H](Cc1cnc[nH]1)C(=O)N[C@@H](CCC(=O)O)C(=O)N[C@@H](CC(C)C)C(=O)N[C@@H](C)C(=O)N[C@H](C(=O)N[C@@H](CC(C)C)C(=O)N1CCC[C@H]1C(=O)N[C@@H](CCCNC(=N)N)C(=O)N[C@H](C(=O)N[C@@H](CCC(=O)O)C(=O)N[C@H](C(=O)NCC(=O)N1CCC[C@H]1C(=O)N[C@@H](CCC(=O)O)C(=O)N[C@@H](CO)C(=O)N1CCC[C@H]1C(N)=O)[C@@H](C)O)[C@@H](C)O)[C@@H](C)O [Ex. #2, [N-terminal(C18 diacid)]mimylin] ({C18 diacid}-EASELSTAALGRLSAELHELATLPRTETGPESP-NH2)
- PK rat iv T½ ([1]; i.v.): 12 h
- PK rat sc T½ ([1]; s.c.): 13 h
- PK mini pig iv T½ [2]: 85 h

From patent publication US9593149B2, “Amylin and calcitonin receptor agonist” (Novo Nordisk A/S, priority 2014, dated 2017)
